# Results from ChEMBL document CHEMBL1201862, “PubChem BioAssay data set” (2004).
#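 In this assay, cells in 96-well plates receive the compound at five concentrations for 48 hours. Endpoints are linearly interpolated between the surrounding concentrations. At the GI50, growth is halved.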 Calls of active or inactive are those of the source. No stated cut-off is given here; in the data, active = GI50 up to about 1.1 µM and inactive = higher.
# Columns and labels:
# Test in all cases: DTP human tumour cell line panel, 48 h
# [1] = test system: 786-0
# [2] = test system: A498
# [3] = test system: ACHN
# [4] = test system: BT-549
# [5] = test system: CAKI-1
# [6] = test system: CCRF-CEM
# [7] = test system: COLO 205
# [8] = test system: DU-145
# [9] = test system: EKVX
# [10] = test system: HCC 2998
# [11] = test system: HCT-116
# [12] = test system: HCT-15
# [13] = test system: HL-60
# [14] = test system: HOP-62
# [15] = test system: HOP-92
# [16] = test system: HT-29
# [17] = test system: Hs-578T
# [18] = test system: IGROV-1
# [19] = test system: K562
# [20] = test system: KM12
# [21] = test system: LOX IMVI
# [22] = test system: M14
# [23] = test system: MCF7
# [24] = test system: MDA-MB-231
# [25] = test system: MDA-MB-435
# [26] = test system: MOLT-4
# [27] = test system: NCI-H226
# [28] = test system: NCI-H23
# [29] = test system: NCI-H460
# [30] = test system: NCI/ADR-RES
# [31] = test system: OVCAR-4
# [32] = test system: OVCAR-8
# [33] = test system: PC-3
# [34] = test system: RPMI-8226
# [35] = test system: RXF 393
# [36] = test system: SF-268
# [37] = test system: SF-295
# [38] = test system: SF-539
# [39] = test system: SK-MEL-28
# [40] = test system: SK-MEL-2
# [41] = test system: SK-MEL-5
# [42] = test system: SK-OV-3
# [43] = test system: SNB-19
# [44] = test system: SNB-75
# [45] = test system: SR
# [46] = test system: SW-620
# [47] = test system: T47D
# [48] = test system: TK-10
# [49] = test system: U-251
# [50] = test system: UACC-257
# [51] = test system: UACC-62
# [52] = test system: UO-31
# [53] = test system: A549
# [54] = test system: MDA-N
# [55] = test system: Malme-3M
# [56] = test system: NCI-H522
# [57] = test system: OVCAR-3
# [58] = test system: OVCAR-5
# [59] = test system: SN12C
structure (smiles),measurement,setting,value
CCOC(=O)c1c(NC(=O)OC)c(C#N)c2n1CCCCC2,GI50,[1],> 100 µM (inactive)
same,GI50,[2],> 100 µM (inactive)
same,GI50,[3],> 100 µM (inactive)
same,GI50,[4],> 100 µM (inactive)
same,GI50,[5],> 100 µM (inactive)
same,GI50,[6],> 100 µM (inactive)
same,GI50,[7],> 100 µM (inactive)
same,GI50,[8],22.8 µM (inactive)
same,GI50,[9],> 100 µM (inactive)
same,GI50,[10],> 100 µM (inactive)
same,GI50,[11],> 100 µM (inactive)
same,GI50,[12],> 100 µM
same,GI50,[13],> 100 µM (inactive)
same,GI50,[14],> 100 µM (inactive)
same,GI50,[15],93.3 µM (inactive)
same,GI50,[16],> 100 µM (inactive)
same,GI50,[17],> 100 µM (inactive)
same,GI50,[18],> 100 µM (inactive)
same,GI50,[19],> 100 µM (inactive)
same,GI50,[20],> 100 µM (inactive)
same,GI50,[21],> 100 µM (inactive)
same,GI50,[22],> 100 µM (inactive)
same,GI50,[23],> 100 µM (inactive)
same,GI50,[24],35.7 µM (inactive)
same,GI50,[25],> 100 µM (inactive)
same,GI50,[26],45.1 µM (inactive)
same,GI50,[27],> 100 µM (inactive)
same,GI50,[28],> 100 µM (inactive)
same,GI50,[29],> 100 µM (inactive)
same,GI50,[30],> 100 µM (inactive)
same,GI50,[31],> 100 µM (inactive)
same,GI50,[32],> 100 µM (inactive)
same,GI50,[33],> 100 µM (inactive)
same,GI50,[34],> 100 µM (inactive)
same,GI50,[35],> 100 µM (inactive)
same,GI50,[36],> 100 µM (inactive)
same,GI50,[37],> 100 µM (inactive)
same,GI50,[38],> 100 µM (inactive)
same,GI50,[39],> 100 µM (inactive)
same,GI50,[40],> 100 µM (inactive)
same,GI50,[41],> 100 µM (inactive)
same,GI50,[42],> 100 µM (inactive)
same,GI50,[43],> 100 µM (inactive)
same,GI50,[44],> 100 µM (inactive)
same,GI50,[45],> 100 µM (inactive)
same,GI50,[46],> 100 µM (inactive)
same,GI50,[47],> 100 µM (inactive)
same,GI50,[48],> 100 µM (inactive)
same,GI50,[49],> 100 µM (inactive)
same,GI50,[50],> 100 µM (inactive)
same,GI50,[51],> 100 µM (inactive)
same,GI50,[52],> 100 µM (inactive)
CCCCCCC(=O)c1ccc2ccccc2c1O,GI50,[1],38.8 µM (inactive)
same,GI50,[2],0.318 µM (active)
same,GI50,[3],54 µM (inactive)
same,GI50,[4],76 µM (inactive)
same,GI50,[5],43.2 µM (inactive)
same,GI50,[6],33.1 µM (inactive)
same,GI50,[7],66.1 µM (inactive)
same,GI50,[8],26.6 µM (inactive)
same,GI50,[9],25.4 µM (inactive)
same,GI50,[10],> 100 µM (inactive)
same,GI50,[11],53 µM (inactive)
same,GI50,[12],32.8 µM
same,GI50,[13],36.4 µM (inactive)
same,GI50,[14],> 100 µM (inactive)
same,GI50,[15],93.3 µM (inactive)
same,GI50,[16],25.1 µM (inactive)
same,GI50,[17],56 µM (inactive)
same,GI50,[18],27.4 µM (inactive)
same,GI50,[19],> 100 µM (inactive)
same,GI50,[20],31 µM (inactive)
same,GI50,[21],42.1 µM (inactive)
same,GI50,[22],58.3 µM (inactive)
same,GI50,[23],33.4 µM (inactive)
same,GI50,[24],85.5 µM (inactive)
same,GI50,[25],69.2 µM (inactive)
same,GI50,[26],20.3 µM (inactive)
same,GI50,[27],40.1 µM (inactive)
same,GI50,[28],92.5 µM (inactive)
same,GI50,[29],52.4 µM (inactive)
same,GI50,[30],51.2 µM (inactive)
same,GI50,[31],> 100 µM (inactive)
same,GI50,[32],41.7 µM (inactive)
same,GI50,[33],61 µM (inactive)
same,GI50,[34],98.4 µM (inactive)
same,GI50,[35],25.1 µM (inactive)
same,GI50,[36],34.2 µM (inactive)
same,GI50,[37],34.5 µM (inactive)
same,GI50,[38],52.7 µM (inactive)
same,GI50,[39],> 100 µM (inactive)
same,GI50,[40],23.8 µM (inactive)
same,GI50,[41],> 100 µM (inactive)
same,GI50,[42],52.4 µM (inactive)
same,GI50,[43],> 100 µM (inactive)
same,GI50,[44],43.1 µM (inactive)
same,GI50,[45],33.3 µM (inactive)
same,GI50,[46],64.7 µM (inactive)
same,GI50,[47],34.8 µM (inactive)
same,GI50,[48],> 100 µM (inactive)
same,GI50,[49],> 100 µM (inactive)
same,GI50,[50],32.7 µM (inactive)
same,GI50,[51],47 µM (inactive)
same,GI50,[52],47.6 µM (inactive)
COc1c(Br)cc(/C=C(\C#N)c2cccnc2)cc1Br,GI50,[1],> 100 µM (inactive)
same,GI50,[53],53.1 µM (inactive)
same,GI50,[3],93.3 µM (inactive)
same,GI50,[4],30.5 µM (inactive)
same,GI50,[5],> 100 µM (inactive)
same,GI50,[6],> 100 µM (inactive)
same,GI50,[7],34.5 µM (inactive)
same,GI50,[8],> 100 µM (inactive)
same,GI50,[9],4.31 µM (inactive)
same,GI50,[10],48 µM (inactive)
same,GI50,[11],> 100 µM (inactive)
same,GI50,[12],33.5 µM
same,GI50,[13],36.2 µM (inactive)
same,GI50,[14],54.8 µM (inactive)
same,GI50,[15],23.1 µM (inactive)
same,GI50,[16],26.4 µM (inactive)
same,GI50,[18],63 µM (inactive)
same,GI50,[19],80.9 µM (inactive)
same,GI50,[20],33.1 µM (inactive)
same,GI50,[22],43.4 µM (inactive)
same,GI50,[23],35.8 µM (inactive)
same,GI50,[54],> 100 µM (inactive)
same,GI50,[26],49.1 µM (inactive)
same,GI50,[55],> 100 µM (inactive)
same,GI50,[27],33.7 µM (inactive)
same,GI50,[28],32.7 µM (inactive)
same,GI50,[29],37.8 µM (inactive)
same,GI50,[56],42.1 µM (inactive)
same,GI50,[30],34.9 µM (inactive)
same,GI50,[57],99.1 µM (inactive)
same,GI50,[31],81.5 µM (inactive)
same,GI50,[58],30.3 µM (inactive)
same,GI50,[32],53.8 µM (inactive)
same,GI50,[33],45.4 µM (inactive)
same,GI50,[34],> 100 µM (inactive)
same,GI50,[35],51.5 µM (inactive)
same,GI50,[36],67.6 µM (inactive)
same,GI50,[37],52.7 µM (inactive)
same,GI50,[38],43.7 µM (inactive)
same,GI50,[39],50.5 µM (inactive)
same,GI50,[40],96.6 µM (inactive)
same,GI50,[41],43.7 µM (inactive)
same,GI50,[42],56.9 µM (inactive)
same,GI50,[59],> 100 µM (inactive)
same,GI50,[43],> 100 µM (inactive)
same,GI50,[44],> 100 µM (inactive)
same,GI50,[45],29.5 µM (inactive)
same,GI50,[46],38.7 µM (inactive)
same,GI50,[48],61.7 µM (inactive)
same,GI50,[49],36.3 µM (inactive)
same,GI50,[50],> 100 µM (inactive)
same,GI50,[51],> 100 µM (inactive)
same,GI50,[52],> 100 µM (inactive)
